From PubChem BioAssay AID328 (DTP/NCI, 2004) come the findings set out here.

In the test the test system is BDF1 mice, P388 leukemia ip, median survival T/C. Description: NCI In Vivo Anticancer Drug Screen. Data for tumor model P388 Leukemia (intraperitoneal) in B6D2F1 (BDF1) mice. Particulars: endpoint: median survival time, higher = longer survival. The essentials:
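Compound-treated tumour-bearing mice were compared with vehicle-treated controls. Survival was recorded, and the value is the treated-group measurement divided by the control-group measurement (T/C).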

The mark [1] stands for this setting: dose: 25.0 mg/kg/injection, schedule: Q01DX009 (ip), vehicle: Klucel (hydroxypropylcellulose) (HPC).
Setting [2] is: dose: 100.0 mg/kg/injection, schedule: Q04DX003 (ip), vehicle: saline with Tween-80.
[3] abbreviates: dose: 200.0 mg/kg/injection, schedule: Q04DX003 (ip), vehicle: saline with Tween-80.
[4] abbreviates: dose: 400.0 mg/kg/injection, schedule: Q04DX003 (ip), vehicle: saline with Tween-80.
Setting [5] is: dose: 100.0 mg/kg/injection, schedule: Q01DX009 (ip), vehicle: saline with Tween-80.
[6] abbreviates: dose: 200.0 mg/kg/injection, schedule: Q01DX009 (ip), vehicle: saline with Tween-80.

“And” between values parts separate entries of the source, which are not always exact repeats. Equal entries are not always repeated. Toxic doses and inconclusive results are not listed. Non-standard residues stand in square brackets, D forms with d. Residues, ends and D or L forms follow the SMILES beside them. ξ: configuration not given here. ξF = NC(Cc1ccccc1)C(=O)O

With `CC1CCC(NC(=O)N(CCCl)N=O)CC1` (stereo not given), the T/C runs as follows: (dose: 0.66 mg/kg/injection, schedule: Q01DX009 (ip), vehicle: Klucel (hydroxypropylcellulose) (HPC)) 97 % of control; (dose: 0.99 mg/kg/injection, schedule: Q01DX009 (ip), vehicle: Klucel (hydroxypropylcellulose) (HPC)) 107 % of control; (dose: 1.5 mg/kg/injection, schedule: Q01DX009 (ip), vehicle: Klucel (hydroxypropylcellulose) (HPC)) 177 % of control; (dose: 3.1 mg/kg/injection, schedule: Q04DX003 (ip), vehicle: Klucel (hydroxypropylcellulose) (HPC)) 154 % of control; (dose: 3.6 mg/kg/injection, schedule: Q01DX009 (ip), vehicle: Klucel (hydroxypropylcellulose) (HPC)) 180 % of control; (dose: 4.7 mg/kg/injection, schedule: Q04DX003 (ip), vehicle: Klucel (hydroxypropylcellulose) (HPC)) 172 % of control. The T/C reads like this: (dose: 5.0 mg/kg/injection, schedule: Q04DX002 (ip), vehicle: other) 168 % of control; (dose: 7.2 mg/kg/injection, schedule: Q04DX003 (ip), vehicle: saline) 190 % of control; (dose: 8.3 mg/kg/injection, schedule: Q01DX009 (ip), vehicle: Klucel (hydroxypropylcellulose) (HPC)) 250 % of control; (dose: 9.4 mg/kg/injection, schedule: Q04DX003 (ip), vehicle: saline with Tween-80) 113 % of control; (dose: 10.0 mg/kg/injection, schedule: Q01DX001 (ip), vehicle: alcohol) 119 % of control; (dose: 10.0 mg/kg/injection, schedule: Q04DX002 (ip), vehicle: other) 194 % of control. The T/C was 209 % of control (dose: 10.0 mg/kg/injection, schedule: Q04DX003 (ip), vehicle: saline with Tween-80); 225 % of control (dose: 10.0 mg/kg/injection, schedule: Q04DX003 (ip), vehicle: saline); 272 % of control (dose: 11.0 mg/kg/injection, schedule: Q04DX003 (ip), vehicle: saline with Tween-80); 300 % of control and 120 % of control (dose: 12.5 mg/kg/injection, schedule: Q01DX009 (ip), vehicle: Klucel (hydroxypropylcellulose) (HPC)); 241 % of control and 322 % of control and 212 % of control (dose: 15.0 mg/kg/injection, schedule: Q04DX003 (ip), vehicle: saline with Tween-80); 322 % of control (dose: 16.0 mg/kg/injection, schedule: Q01DX001 (ip), vehicle: saline with Tween-80). In addition, the T/C (dose: 16.0 mg/kg/injection, schedule: Q04DX003 (ip), vehicle: saline with Tween-80) is 545 % of control; the T/C (dose: 16.5 mg/kg/injection, schedule: Q04DX003 (ip), vehicle: saline) was 272 % of control; the T/C (dose: 18.0 mg/kg/injection, schedule: Q01DX009 (ip), vehicle: Klucel (hydroxypropylcellulose) (HPC)) was 110 % of control; the T/C (dose: 18.75 mg/kg/injection, schedule: Q01DX009 (ip), vehicle: Klucel (hydroxypropylcellulose) (HPC)) was 100 % of control; the T/C (dose: 20.0 mg/kg/injection, schedule: Q04DX002 (ip), vehicle: other) is 247 % of control; the T/C (dose: 20.0 mg/kg/injection, schedule: Q04DX003 (ip), vehicle: saline with Tween-80) is 258 % of control and 294 % of control and 482 % of control. Also, the T/C (dose: 24.0 mg/kg/injection, schedule: Q04DX003 (ip), vehicle: saline with Tween-80) is 545 % of control; the T/C under setting [1] is 115 % of control; the T/C (dose: 25.0 mg/kg/injection, schedule: Q04DX003 (ip), vehicle: alcohol) is 300 % of control; the T/C (dose: 25.0 mg/kg/injection, schedule: Q04DX003 (ip), vehicle: saline) is 240 % of control and 272 % of control; the T/C (dose: 30.0 mg/kg/injection, schedule: Q04DX003 (ip), vehicle: saline with Tween-80) was 446 % of control; the T/C (dose: 37.5 mg/kg/injection, schedule: Q04DX003 (ip), vehicle: saline) was 90 % of control and 218 % of control. In addition, the T/C is 117 % of control (dose: 40.0 mg/kg/injection, schedule: Q04DX002 (ip), vehicle: other); 115 % of control (dose: 50.0 mg/kg/injection, schedule: Q04DX003 (ip), vehicle: alcohol); 499 % of control (dose: 54.0 mg/kg/injection, schedule: Q01DX001 (ip), vehicle: saline with Tween-80).
Consider `CC1(C(N)=O)CCCC2(C)c3ccccc3CCC12` (stereo not given), for which the T/C reads like this: under setting [2], 100 % of control; under setting [3], 104 % of control; under setting [4], 100 % of control.
`Cc1ccc2c(ccc3c[n+]4ccccc4c(C)c32)c1`: the T/C (dose: 12.5 mg/kg/injection, schedule: Q04DX003 (ip), vehicle: saline with Tween-80) is 113 % of control; the T/C (dose: 25.0 mg/kg/injection, schedule: Q04DX003 (ip), vehicle: saline with Tween-80) was 118 % of control; the T/C (dose: 33.0 mg/kg/injection, schedule: Q04DX003 (ip), vehicle: saline with Tween-80) was 122 % of control.
In the case of `C1OCC2[CH2][Hg][S][Hg][CH2]C1O2`, the T/C was 109 % of control (dose: 1.25 mg/kg/injection, schedule: Q01DX010 (ip), vehicle: saline); 104 % of control (dose: 2.5 mg/kg/injection, schedule: Q01DX010 (ip), vehicle: saline); 109 % of control (dose: 5.0 mg/kg/injection, schedule: Q01DX010 (ip), vehicle: saline); 122 % of control (dose: 10.0 mg/kg/injection, schedule: Q01DX010 (ip), vehicle: saline).
Turning to `COc1ccc(OC)c(C(=O)CC(O)(C(F)(F)F)C(F)(F)F)c1`, the T/C was 95 % of control under setting [5]; 120 % of control under setting [2]; 108 % of control under setting [6]; 110 % of control under setting [3]; 104 % of control (dose: 400.0 mg/kg/injection, schedule: Q01DX009 (ip), vehicle: saline with Tween-80); 100 % of control under setting [4].
For the compound `COc1c(CO)c2c(c(OC)c1OC)-c1ccc(OC)c(=O)cc1[C@@H](NC(C)=O)CC2`, the T/C under setting [1] was 153 % of control and the T/C (dose: 50.0 mg/kg/injection, schedule: Q01DX009 (ip), vehicle: Klucel (hydroxypropylcellulose) (HPC)) is 168 % of control.
For the compound `CC(=O)OCC(COC(C)=O)=C1N=C(c2ccccc2)OC1=O`, the T/C reads like this: (dose: 50.0 mg/kg/injection, schedule: Q01DX009 (ip), vehicle: saline with Tween-80) 107 % of control; under setting [5], 96 % of control; under setting [2], 118 % of control; under setting [6], 115 % of control; under setting [4], 118 % of control.
As to `CCOC(=O)c1cnc2ccc3ccccc3n2c1=O`, the T/C by setting is: (dose: 50.0 mg/kg/injection, schedule: Q04DX002 (ip), vehicle: saline with Tween-80) 101 % of control; (dose: 100.0 mg/kg/injection, schedule: Q04DX002 (ip), vehicle: saline with Tween-80) 101 % of control; (dose: 200.0 mg/kg/injection, schedule: Q04DX002 (ip), vehicle: saline with Tween-80) 93 % of control.
In the case of `CCCCOC(=O)C(C)OC(=O)Nc1ccccc1` (stereo not given), the T/C is, setting by setting: (dose: 100.0 mg/kg/injection, schedule: Q04DX003 (sc), vehicle: olive oil, sesame oil, peanut oil) 100 % of control; (dose: 200.0 mg/kg/injection, schedule: Q04DX003 (sc), vehicle: olive oil, sesame oil, peanut oil) 88 % of control; (dose: 400.0 mg/kg/injection, schedule: Q04DX003 (sc), vehicle: olive oil, sesame oil, peanut oil) 103 % of control.
With `C[C@]12CC[C@H]3[C@@H](CC[C@H]4N(CCCl)CCC[C@]34C)[C@@H]1CC[C@@H]2O`, the T/C (dose: 12.5 mg/kg/injection, schedule: Q01DX001 (ip), vehicle: saline) was 105 % of control and the T/C (dose: 25.0 mg/kg/injection, schedule: Q01DX001 (ip), vehicle: saline) is 109 % of control.
As to `NC(Cc1ccccc1)C(=O)NCC(=O)O` (stereo not given) (H-[ξF]-Gly-OH), the T/C is, setting by setting: (dose: 100.0 mg/kg/injection, schedule: Q04DX003 (ip), vehicle: saline) 100 % of control; (dose: 200.0 mg/kg/injection, schedule: Q04DX003 (ip), vehicle: saline) 100 % of control; (dose: 400.0 mg/kg/injection, schedule: Q04DX003 (ip), vehicle: saline) 100 % of control.
Turning to `CC1B(O)Nc2nc(=S)[nH]c(N)c21` (stereo not given), the T/C is, setting by setting: (dose: 50.0 mg/kg/injection, schedule: Q04DX003 (ip), vehicle: saline sonified) 100 % of control; (dose: 100.0 mg/kg/injection, schedule: Q04DX003 (ip), vehicle: saline sonified) 100 % of control; (dose: 200.0 mg/kg/injection, schedule: Q04DX003 (ip), vehicle: saline sonified) 100 % of control.
